Test results as given in patent US8957049B2, “Inhibitors of fatty acid amide hydrolase” (Infinity Pharmaceuticals, Inc., priority 2008, dated 2015).

The molecules below were run against T1, human FAAH (Homo sapiens, UniProt O00519) (assay: Human FAAH biochemical inhibition assay (AMC arachidonoyl amide fluorescence)). Details: class given in each Example, read-out: Activity (Ki, inhibition of human FAAH).
T1 construct: host or cells: COS-7 cells, transient transfection (FuGENE 6); 13,000 g membrane fraction solubilised in 1% Triton X-100
T1 sequence (O00519 1-579): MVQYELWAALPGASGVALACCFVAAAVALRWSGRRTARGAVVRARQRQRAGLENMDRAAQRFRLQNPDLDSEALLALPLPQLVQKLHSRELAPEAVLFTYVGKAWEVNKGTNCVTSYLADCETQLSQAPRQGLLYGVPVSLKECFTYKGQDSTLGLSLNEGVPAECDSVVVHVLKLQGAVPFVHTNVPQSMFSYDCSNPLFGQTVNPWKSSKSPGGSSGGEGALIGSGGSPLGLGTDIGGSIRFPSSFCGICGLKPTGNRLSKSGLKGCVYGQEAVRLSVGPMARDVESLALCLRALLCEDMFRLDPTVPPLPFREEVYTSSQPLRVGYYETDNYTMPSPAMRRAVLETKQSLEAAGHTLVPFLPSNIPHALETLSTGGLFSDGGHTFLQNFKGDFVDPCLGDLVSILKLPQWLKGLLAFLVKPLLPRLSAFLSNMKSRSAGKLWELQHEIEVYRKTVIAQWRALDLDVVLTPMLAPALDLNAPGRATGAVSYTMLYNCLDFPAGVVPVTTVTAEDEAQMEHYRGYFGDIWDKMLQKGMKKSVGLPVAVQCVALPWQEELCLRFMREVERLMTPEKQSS
In short: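 Human FAAH from solubilized membranes of transiently transfected COS-7 cells, 0.1 mg/mL in 50 mM Hepes pH 7.5, 1 mM EDTA, 0.2% Triton X-100, preincubated 30 min at room temperature with 3-fold serially diluted inhibitor. Hydrolysis of AMC arachidonoyl amide read by fluorescence (ex 355/em 460 nm). Data fitted to single-site competitive inhibition with Km fixed at 9 μM.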
A Ki of no more than 10 nM was found for `CC(C)(C)OC(=O)N1CCC(c2ccc(B(O)O)cc2)CC1` [Compound 233] in this work. A Ki of no more than 10 nM was found for `CN(CCc1ccc(B(O)O)cc1)C(=O)OC(C)(C)C` [Compound 234] in this work. A Ki of no more than 10 nM was found for `CN(CCCc1ccc(B(O)O)cc1)C(=O)OC(C)(C)C` [Compound 235] in this work. A Ki of 10 to 100 nM was found for `O=S(=O)(c1ccccc1)N1CCC(c2ccc(B(O)O)cc2)CC1` [Compound 236] in this work. A Ki of no more than 10 nM was found for `CN(CCc1ccc(B(O)O)cc1)S(=O)(=O)c1ccccc1` [Compound 237] in this work. A Ki of no more than 10 nM was found for `CN(CCCc1ccc(B(O)O)cc1)S(=O)(=O)c1ccccc1` [Compound 238] in this work. A Ki of 10 to 100 nM was found for `O=C(CCc1nnc(-c2ccc(B(O)O)cc2)o1)N1CCCCC1` [Compound 239] in this work. A Ki of no more than 10 nM was found for `OB(O)c1ccc2nc(Cc3ccccc3)oc2c1` [Compound 241] in this work. A Ki of no more than 10 nM was found for `OB(O)c1ccc2oc(CCc3ccccc3)nc2c1` [Compound 242] in this work. A Ki of no more than 10 nM was found for `OB(O)c1ccc2nc(CCc3ccccc3)oc2c1` [Compound 243] in this work. A Ki of no more than 10 nM was found for `CCCc1nc2ccc(B(O)O)cc2o1` [Compound 244] in this work. A Ki of no more than 10 nM was found for `CCCCCc1nc2ccc(B(O)O)cc2o1` [Compound 245] in this work. A Ki of no more than 10 nM was found for `OB(O)c1ccc2nc(CCCC(F)(F)F)oc2c1` [Compound 246] in this work. A Ki of 10 to 100 nM was found for `O=C(CCc1nc2ccc(B(O)O)cc2o1)N1CCCCC1` [Compound 247] in this work. A Ki of 10 to 100 nM was found for `O=C1CC(c2nc3ccc(B(O)O)cc3o2)CN1c1ccccc1` (stereo not drawn) [Compound 248] in this work. A Ki of 10 to 100 nM was found for `O=C1CC(c2nc3ccc(B(O)O)cc3o2)CN1Cc1ccccc1` (stereo not drawn) [Compound 249] in this work. A Ki of no more than 10 nM was found for `OB(O)c1cc2oc(CCc3ccccc3)nc2cc1F` [Compound 253] in this work. A Ki greater than 1000 nM was found for `OB1c2cc3c(cc2C=NN1Cc1ccccc1)OCO3` [Compound 254] in this work. A Ki greater than 1000 nM was found for `COc1ccc2c(c1)B(O)N(Cc1ccccc1)N=C2` [Compound 255] in this work. A Ki greater than 1000 nM was found for `OB1c2sccc2C=NN1Cc1ccccc1` [Compound 256] in this work. A Ki greater than 1000 nM was found for `OB1c2cscc2C=NN1Cc1ccccc1` [Compound 257] in this work. A Ki greater than 1000 nM was found for `OB1NN=Cc2cc(OCc3ccccc3)ccc21` [Compound 258] in this work. A Ki greater than 1000 nM was found for `OB(O)c1ccccc1-c1nc2ncccc2o1` [Compound 259] in this work. A Ki greater than 1000 nM was found for `CCCc1nnc(-c2cc(OC)ccc2B(O)O)o1` [Compound 260] in this work. A Ki greater than 1000 nM was found for `CCCc1nnc(-c2cc(F)ccc2B(O)O)o1` [Compound 261] in this work. A Ki greater than 1000 nM was found for `CCCc1nnc(-c2c(F)cccc2B(O)O)o1` [Compound 262] in this work. A Ki greater than 1000 nM was found for `O=C1CCCN1CCc1nnc(-c2ccccc2B(O)O)o1` [Compound 263] in this work. A Ki greater than 1000 nM was found for `OB(O)c1ccccc1-c1nnc(-c2ccco2)o1` [Compound 264] in this work. A Ki greater than 1000 nM was found for `OB(O)c1ccccc1-c1nnc(CCc2ccccc2)o1` [Compound 265] in this work. A Ki greater than 1000 nM was found for `CCCc1nnc(-c2ccccc2B(O)O)s1` [Compound 266] in this work. A Ki of no more than 10 nM was found for `CCCc1nnc(-c2cc(OCCc3ccccc3)ccc2B(O)O)s1` [Compound 267] in this work. A Ki of 10 to 100 nM was found for `Cn1cncc1-c1nnc(-c2cc(OCCc3ccccc3)ccc2B(O)O)o1` [Compound 268] in this work. A Ki of 100 to 1000 nM was found for `Cc1nc(-c2nnc(-c3cc(OCCc4ccccc4)ccc3B(O)O)o2)cs1` [Compound 269] in this work. A Ki of 10 to 100 nM was found for `CCCCOc1ccc(B(O)O)c(-c2nnc(CCC)o2)c1` [Compound 271] in this work. A Ki of 10 to 100 nM was found for `CCCCOc1ccc(B(O)O)c(-c2nnc(C)o2)c1` [Compound 272] in this work. A Ki of no more than 10 nM was found for `CCCc1noc(-c2ccc(B(O)O)cc2)n1` [Compound 272] in this work. A Ki of 10 to 100 nM was found for `CCCc1noc(-c2cc(OCCc3ccccc3)ccc2B(O)O)n1` [Compound 273] in this work. A Ki of 10 to 100 nM was found for `CCCc1cnc(-c2cc(OCCc3ccccc3)ccc2B(O)O)s1` [Compound 276] in this work. A Ki of 100 to 1000 nM was found for `CCCCOc1ccc2c(c1)C=NOB2O` [Compound 277] in this work. A Ki of no more than 10 nM was found for `OB(O)c1ccc2nc(CCc3ccccc3)sc2c1` [Compound 278] in this work. A Ki of 100 to 1000 nM was found for `OB(O)c1ccc(C2CCN(Cc3ccccc3)CC2)cc1` [Compound 279] in this work. A Ki of 10 to 100 nM was found for `CC(C)c1ccc(CN2CCC(c3ccc(B(O)O)cc3)CC2)cc1` [Compound 280] in this work.
